Among the data in DBAASP are MIC values, retold here.

In brackets after ≈: the same amount, converted by molar mass. Some results are limits rather than exact numbers.

For orientation: MIC means the lowest concentration found to suppress growth.

Experiment in all cases: ≥ marks a high value that may be exact or a test limit, other limits are often not marked, values filed in µg/mL are converted to µM
Assay [1] deals with Escherichia coli.
For assay [2], the system named is Bacillus cereus.
Assay [3] has as its system Staphylococcus aureus.
Assay [4] has as its system Escherichia coli ATCC 25922.
The test system of assay [5] is Candida albicans ATCC 90028.
Assay [6] has as its system Staphylococcus aureus ATCC 29213.
Assay [7] concerns Pseudomonas aeruginosa ATCC 27853.

Turning to `CC(C)C[C@H](NC(=O)[C@H](CCCCN)NC(=O)[C@H](Cc1ccccc1)NC(=O)[C@@H](NC(=O)[C@H](CCCCN)NC(=O)CNC(=O)[C@H](CC(C)C)NC(=O)[C@@H](N)Cc1ccccc1)C(C)C)C(=O)N[C@@H](C)C(=O)N[C@@H](CO)C(=O)N[C@@H](CCCCN)C(=O)N[C@H](C(=O)N[C@@H](Cc1ccccc1)C(=O)N[C@@H](CCCCN)C(=O)N[C@@H](C)C(=O)N[C@H](C(=O)N[C@@H](Cc1ccccc1)C(=O)NCC(=O)N[C@@H](CCCCN)C(=O)N[C@H](C(=O)O)C(C)C)C(C)C)C(C)C` [FLGKVFKLASKVFKAVFGKV], the minimum inhibitory concentration (MIC) in assay [1] was 7.23 µM (≈ 16 µg/mL); in assay [2], 3.61 µM (≈ 8 µg/mL); in assay [3] it was 1.81 µM (≈ 4 µg/mL).
`CC(C)C[C@H](NC(=O)[C@H](CCCCN)NC(=O)[C@H](Cc1ccccc1)NC(=O)[C@@H](NC(=O)[C@H](CCCCN)NC(=O)CNC(=O)[C@H](CC(C)C)NC(=O)[C@@H](N)Cc1ccccc1)C(C)C)C(=O)N[C@@H](C)C(=O)N[C@@H](CO)C(=O)N[C@@H](CCCCN)C(=O)N[C@H](C(=O)N[C@@H](Cc1ccccc1)C(=O)N1CCC[C@H]1C(=O)N[C@@H](CCCCN)C(=O)N[C@H](C(=O)N[C@@H](Cc1ccccc1)C(=O)NCC(=O)N[C@@H](CCCCN)C(=O)N[C@H](C(=O)O)C(C)C)C(C)C)C(C)C` [FLGKVFKLASKVFPKVFGKV]: the results for the MIC in assay [1], in assay [2] and in assay [3] were 7.14 µM (≈ 16 µg/mL), 14.3 µM (≈ 32 µg/mL) and 28.6 µM (≈ 64 µg/mL), respectively.
For `CC(C)C[C@H](NC(=O)[C@H](CCCCN)NC(=O)[C@H](Cc1ccccc1)NC(=O)[C@@H](NC(=O)[C@@H](NC(=O)CNC(=O)[C@H](CC(C)C)NC(=O)[C@@H](N)Cc1ccccc1)C(C)C)C(C)C)C(=O)N[C@@H](C)C(=O)N[C@@H](CO)C(=O)N[C@@H](CCCCN)C(=O)N[C@H](C(=O)N[C@@H](Cc1ccccc1)C(=O)NCC(=O)N[C@@H](C)C(=O)N[C@H](C(=O)N[C@@H](Cc1ccccc1)C(=O)NCC(=O)N[C@@H](CCCCN)C(=O)N[C@H](C(=O)O)C(C)C)C(C)C)C(C)C` [FLGVVFKLASKVFGAVFGKV] the same measures were above 121 µM, 7.57 µM (≈ 16 µg/mL) and 3.79 µM (≈ 8 µg/mL).
For `CC(C)C[C@H](NC(=O)[C@H](CCCCN)NC(=O)[C@H](Cc1ccccc1)NC(=O)[C@@H](NC(=O)[C@H](CCCCN)NC(=O)[C@H](CCCCN)NC(=O)[C@H](CC(C)C)NC(=O)[C@@H](N)Cc1ccccc1)C(C)C)C(=O)N[C@@H](C)C(=O)N[C@@H](CO)C(=O)N[C@@H](CCCCN)C(=O)N[C@H](C(=O)N[C@@H](Cc1ccccc1)C(=O)N1CCC[C@H]1C(=O)N[C@@H](C)C(=O)N[C@H](C(=O)N[C@@H](Cc1ccccc1)C(=O)NCC(=O)N[C@@H](CCCCN)C(=O)N[C@H](C(=O)O)C(C)C)C(C)C)C(C)C` [FLKKVFKLASKVFPAVFGKV], the MIC in assay [1] came out at 1.77 µM (≈ 4 µg/mL); in assay [2], 14.2 µM (≈ 32 µg/mL); in assay [3], 28.4 µM (≈ 64 µg/mL).
On the same counts, the results for `CC(C)C[C@H](NC(=O)[C@@H](N)Cc1ccccc1)C(=O)N[C@@H](CCCCN)C(=O)N[C@H](C(=O)N[C@H](C(=O)N[C@@H](Cc1ccccc1)C(=O)N[C@@H](CCCCN)C(=O)N[C@@H](CCCCN)C(=O)N[C@@H](C)C(=O)N[C@@H](CO)C(=O)N[C@@H](CCCCN)C(=O)N[C@H](C(=O)N[C@@H](Cc1ccccc1)C(=O)N1CCC[C@H]1C(=O)N[C@@H](C)C(=O)N[C@H](C(=O)N[C@@H](Cc1ccccc1)C(=O)NCC(=O)N[C@@H](CCCCN)C(=O)N[C@H](C(=O)O)C(C)C)C(C)C)C(C)C)C(C)C)C(C)C` [FLKVVFKKASKVFPAVFGKV] are 57.1 µM (≈ 128 µg/mL), at least 57.1 µM and above 57.1 µM.
Regarding `CC(C)C[C@H](NC(=O)[C@H](CCCCN)NC(=O)[C@H](Cc1ccccc1)NC(=O)[C@@H](NC(=O)[C@@H](NC(=O)[C@H](CCCCN)NC(=O)[C@H](CC(C)C)NC(=O)[C@@H](N)Cc1ccccc1)C(C)C)C(C)C)C(=O)N[C@@H](C)C(=O)N[C@@H](CO)C(=O)N[C@@H](CCCCN)C(=O)N[C@H](C(=O)N[C@@H](Cc1ccccc1)C(=O)NCC(=O)N[C@@H](C)C(=O)N[C@H](C(=O)N[C@@H](Cc1ccccc1)C(=O)NCC(=O)N[C@@H](CCCCN)C(=O)N[C@H](C(=O)O)C(C)C)C(C)C)C(C)C` [FLKVVFKLASKVFGAVFGKV], the MIC is 58.6 µM (≈ 128 µg/mL) in assay [1], 7.32 µM (≈ 16 µg/mL) in assay [2] and 7.32 µM (≈ 16 µg/mL) in assay [3].
On to `CC[C@H](C)[C@H](NC(=O)[C@H](C)NC(=O)CNC(=O)[C@H](Cc1ccccc1)NC(=O)[C@@H](NC(=O)[C@H](CO)NC(=O)[C@@H]1CCCN1C(=O)[C@@H](NC(=O)[C@@H](NC(=O)[C@H](CCCCN)NC(=O)[C@H](CO)NC(=O)[C@H](C)NC(=O)[C@H](CC(C)C)NC(=O)[C@H](CO)NC(=O)CNC(=O)[C@@H](NC(=O)[C@@H](N)Cc1ccccc1)C(C)C)C(C)C)C(C)C)C(C)C)C(=O)N[C@@H](CCCCN)C(=O)N[C@H](C(=O)N[C@@H](CCCCN)C(=O)O)[C@@H](C)O` [FVGSLASKVVPSVFGAIKTK], for which the MIC was above 126 µM in assay [1] and at least 126 µM in assay [2].
As for `CC[C@H](C)[C@H](NC(=O)[C@H](Cc1ccccc1)NC(=O)CN)C(=O)NCC(=O)N[C@@H](CCCCN)C(=O)N[C@@H](CC(C)C)C(=O)N[C@@H](C)C(=O)N[C@@H](CO)C(=O)N[C@@H](CCCCN)C(=O)N[C@H](C(=O)N[C@H](C(=O)N1CCC[C@H]1C(=O)N[C@@H](CO)C(=O)N[C@H](C(=O)N[C@@H](Cc1ccc(O)cc1)C(=O)N[C@@H](CS)C(=O)N[C@@H](CCCCN)C(=O)N[C@H](C(=O)N[C@H](C(=O)NCC(=O)O)[C@@H](C)O)C(C)C)C(C)C)C(C)C)C(C)C` [GFIGKLASKVVPSVYCKVTG], the MIC in assay [1] was 62.3 µM (≈ 128 µg/mL); in assay [2] it was at least 125 µM.
Regarding `CC[C@H](C)[C@H](NC(=O)[C@H](CCCN=C(N)N)NC(=O)[C@H](CCC(N)=O)NC(=O)[C@@H](NC(=O)[C@H](CCCCN)NC(=O)[C@H](CCCN=C(N)N)NC(=O)[C@@H](N)CCCCN)C(C)C)C(=O)N[C@@H](CCCCN)C(=O)N[C@@H](CC(=O)O)C(=O)N[C@@H](Cc1ccccc1)C(=O)N[C@@H](CC(C)C)C(=O)N[C@@H](CCCN=C(N)N)C(=O)O` [KRKVQRIKDFLR], the MIC is 1.25 µM (≈ 1.98 µg/mL) in assay [4], 20 µM (≈ 31.7 µg/mL) in assay [5], 10 µM (≈ 15.9 µg/mL) in assay [6] and 2.5 µM (≈ 3.97 µg/mL) in assay [7].
`CC[C@H](C)[C@H](NC(=O)[C@@H](NC(=O)[C@H](C)NC(=O)[C@H](C)NC(=O)[C@@H](NC(=O)[C@H](CCCN=C(N)N)NC(=O)[C@H](CO)NC(=O)[C@H](CO)NC(=O)[C@@H](NC(=O)[C@@H](NC(=O)[C@H](CC(C)C)NC(=O)[C@@H](NC(=O)[C@H](Cc1ccccc1)NC(=O)[C@@H]1CCCN1C(=O)[C@H](CO)NC(=O)[C@@H](N)CCCCN)C(C)C)C(C)C)C(C)C)C(C)C)C(C)C)C(=O)N[C@@H](CCCCN)C(=O)N[C@@H](CO)C(=O)N[C@@H](CC(C)C)C(=O)N1CCC[C@H]1C(=O)O` [KSPFVLVVSSRVAAVIKSLP]: the MIC is above 122 µM in assay [1] and at least 122 µM in assay [2].
In the case of `CC[C@H](C)[C@H](NC(=O)[C@H](CO)NC(=O)[C@H](C)NC(=O)[C@H](CCCCN)NC(=O)[C@H](CC(C)C)NC(=O)[C@@H](NC(=O)[C@@H](NC(=O)[C@@H]1CCCN1C(=O)[C@@H](NC(=O)[C@@H](NC(=O)[C@@H](N)CCCCN)[C@@H](C)O)C(C)C)C(C)C)C(C)C)C(=O)N[C@@H](CCCCN)C(=O)N[C@H](C(=O)N[C@@H](CO)C(=O)N[C@@H](CO)C(=O)N[C@@H](C)C(=O)NCC(=O)N[C@@H](Cc1ccccc1)C(=O)NCC(=O)N[C@@H](Cc1ccccc1)C(=O)O)C(C)C` [KTVPVVLKASIKVSSAGFGF], the MIC in assay [1] is above 126 µM; in assay [2], at least 126 µM.
Take `CC(C)[C@H](NC(=O)[C@H](CO)NC(=O)[C@@H](NC(=O)[C@H](CCCCN)NC(=O)[C@H](C)NC(=O)[C@@H](NC(=O)[C@@H](NC(=O)[C@H](CCCCN)NC(=O)[C@@H](NC(=O)[C@H](Cc1ccccc1)NC(=O)[C@H](CO)NC(=O)[C@H](CS)NC(=O)[C@@H]1CCCN1C(=O)[C@H](Cc1ccc(O)cc1)NC(=O)[C@H](CO)NC(=O)CNC(=O)[C@H](CCCCN)NC(=O)CNC(=O)[C@@H](NC(=O)[C@@H](N)CCCCN)C(C)C)C(C)C)C(C)C)C(C)C)C(C)C)C(=O)O` [KVGKGSYPCSFVKVVAKVSV]: the minimum inhibitory concentration (MIC) was above 123 µM in assay [1] and at least 123 µM in assay [2].
As to `CC(C)C[C@H](NC(=O)CNC(=O)[C@H](Cc1ccccc1)NC(=O)[C@@H](NC(=O)[C@H](CO)NC(=O)[C@@H]1CCCN1C(=O)[C@@H](NC(=O)[C@@H](NC(=O)[C@H](CCCCN)NC(=O)[C@H](CO)NC(=O)[C@H](C)NC(=O)[C@H](CC(C)C)NC(=O)[C@H](CCCCN)NC(=O)[C@H](Cc1ccccc1)NC(=O)[C@@H](NC(=O)[C@H](C)NC(=O)[C@@H]1CCCN1C(=O)[C@@H](N)CC(C)C)C(C)C)C(C)C)C(C)C)C(C)C)C(=O)N[C@H](C(=O)N[C@@H](CCCCN)C(=O)O)C(C)C` [LPAVFKLASKVVPSVFGLVK], the MIC in assay [1] was above 122 µM; in assay [2], at least 122 µM.
For `CC(C)[C@H](N)C(=O)N[C@H](C(=O)N[C@@H](Cc1ccccc1)C(=O)N[C@@H](CCCN=C(N)N)C(=O)N[C@H](C(=O)N[C@@H](C)C(=O)N[C@@H](CO)C(=O)N[C@@H](CCCCN)C(=O)N[C@H](C(=O)N[C@@H](Cc1ccccc1)C(=O)N1CCC[C@H]1C(=O)N[C@@H](C)C(=O)N[C@H](C(=O)N[C@@H](Cc1ccc(O)cc1)C(=O)N[C@@H](CS)C(=O)N[C@H](C(=O)N[C@H](C(=O)N[C@@H](CO)C(=O)N[C@@H](CCCCN)C(=O)N[C@@H](CCCCN)C(=O)O)C(C)C)[C@@H](C)O)C(C)C)C(C)C)C(C)C)C(C)C` [VVFRVASKVFPAVYCTVSKK] the same measures were 57.4 µM (≈ 128 µg/mL) and at least 115 µM.
